Test results taken from article PMC4884932, “Selective brain penetrable Nurr1 transactivator for treating Parkinson's disease” (Oncotarget, 2016).

Legend:
LXRα = LXRα (Homo sapiens, UniProt Q13133); experiment: Receptor transactivation assay, LXRα (CV-1 cells); format: cell-based; details: at physiological concentrations
Description: (§5) For PPARγ: CV-1 cells were transfected with 3x(rAOX/DR1)-tk-Luc reporter gene and an expression vector for PPARγ; for FXR: CV-1 cells were transfected with 3x(IBABP/IR1)-tk-Luc reporter gene and vectors for FXR and RXRα; for LXR: CV-1 cells were transfected with 3x(PLTP/LXRE)-tk-Luc reporter gene with vectors for LXRα or LXRβ. […] Luciferase data were normalized to co-transfected β-gal activity. Luciferase activity is expressed as percent of maximal activity obtained using specific agonists 9-cis-retinoic acid (RXR), retinoic acid (RAR), rosiglitazone (PPARγ), GW4064 (FXR), T0901317 (LXR).

LXRβ = LXRβ (Homo sapiens, UniProt P55055); experiment: Receptor transactivation assay, LXRβ (CV-1 cells); format: cell-based; details: at physiological concentrations
Description: as §5

PPARγ = PPARγ (Homo sapiens, UniProt P37231); details: at physiological concentrations
Description: (§1) For RXR: CV-1 cells were transfected with rCRBPII/RXRE-tk-Luc reporter gene and an expression vector for RXRα, β, or γ. For RAR: CV-1 cells were transfected with ERE-tk-Luc reporter gene and an expression vector for the appropriate ER-RARα, β, or γ. ER-RARs are fusion proteins, composed of the estrogen receptor (ER) DNA binding domain fused to the ligand binding domain of RARs. This system eliminates interference by the low level of endogenous RAR activity in CV1 cells as the readout comes only from the transfected ER-RAR. For PPARγ: CV-1 cells were transfected with 3x(rAOX/DR1)-tk-Luc reporter gene and an expression vector for PPARγ; for FXR: CV-1 cells were transfected with 3x(IBABP/IR1)-tk-Luc reporter gene and vectors for FXR and RXRα; for LXR: CV-1 cells were transfected with 3x(PLTP/LXRE)-tk-Luc reporter gene with vectors for LXRα or LXRβ. For Nurr1: COS7 cells were transfected with 3xNBRE-tk-luc reporter gene and full length Nurr1 with or without full-length RXRα plasmid. […] Luciferase data were normalized to co-transfected β-gal activity. Luciferase activity is expressed as percent of maximal activity obtained using specific agonists 9-cis-retinoic acid (RXR), retinoic acid (RAR), rosiglitazone (PPARγ), GW4064 (FXR), T0901317 (LXR).

RXRβ = RXRβ (Homo sapiens, UniProt P28702); details: CV-1 cells, 20h
Description: as §1

[1] = system: tyrosine hydroxylase (TH)-positive DA neurons; experiment: DA neuron survival in primary ventral midbrain (VMB) culture; format: cell-based, mouse; details: primary VMB neurons, dose-dependent
Method: Ventral midbrain (VMB) from E13.5-14.5 C57BL/6 mouse embryos were dissected, triturated and plated on poly-D-lysine coated 12 well plates or glass coverslips with the serum-free chemically-defined Neurobasal medium, supplemented with 2% B27, 0.5mM L-glutamine, 50I.U./ml penicillin and 50μg/ml streptomycin (Gibco-BRL). […] For each time point, cells were washed once with phosphate buffered saline and fixed with 4% paraformaldehyde for TH immunofluorescent staining. For cell counting, 10 frames were randomly captured from each well using a Leica fluorescent microscope and a minimum of four replicates for each dose and each time point were analyzed for each experiment.

[2] = Plasma protein binding by equilibrium dialysis, human plasma; format: in vitro ADME; details: K3EDTA control plasma, 37°C, read-out: plasma protein binding, bound (converted)
Method: (§2) SD male rats were grouped into four groups: vehicle, 1mg/kg/day, 3mg/kg/day and 10mg/kg/day. Rats were treated with the designated dose by daily gavage. Acute plasma PK was conducted on day one and acute-on-chronic plasma PK was conducted on day 24. Pharmacokinetic assessment was conducted by collecting of blood at baseline (prior gavage), 0.25, 0.5, 1, 2, 4, 8, 12 and 24h post gavage. […] The spiked plasma was dialyzed at 37°C against an isotonic sodium phosphate buffer to achieve equilibrium. At the end of dialysis, the plasma and buffer level of IRX4204 were quantified by LC/MS/MS.

[3] = Plasma protein binding by equilibrium dialysis, rat plasma; format: in vitro ADME; details: K3EDTA control plasma, 37°C, read-out: plasma protein binding, bound (converted)
Method: as §2

[4] = IRX4204 content in the brain by LC/MS/MS; format: in vivo; details: male, SD, oral, rat, 7 days repeated dosing 10 mg/kg/day gavage, one hour after the last dose
Method: Male SD rats underwent daily gavage with 10mg/kg/day for seven days. One hour after the last dose, rats were anesthetized with ketamine/xylazine and transcardially perfused with cold saline. Brains were isolated and homogenized with two volumes of phosphate buffer using ultrasonication. A 100μl sample of the homogenate was transferred to a 1.7ml centrifuge tube and mixed with 20μl of internal standard (100ng/ml of 13-cis retinoic acid-d5 in diluent). Then the sample was deproteinized with 300μl of acetonitrile, centrifuged, and the supernatant was transferred to an autosampler vial for analysis by LC/MS/MS. The calibration standards and the internal standard (13-cis retinoic acid-d5) were diluted in acetonitrile:butylatedhydroxyanisole:ethoxyquin:triethylamine (100:0.05:0.02:0.1, v/w/v/v).
The LC/MS system was comprised of Waters Acquity Ultra Performance Liquid Chromatography (UPLC) coupled to a XEVO-TQS (Waters). The samples were analyzed by reverse-phase HPLC using a Waters Atlantis T3 column (150 × 2.1mm, 5um). The mobile phase was nebulized using heated nitrogen in a Z-spray source/interface set to electrospray negative ionization mode. The ionized compounds were detected using MS/MS. […] The detection was linear between 2.5nM to 10nM.

6-OHDA lesioned rats [5] = experiment: Cylinder test in 6-OHDA lesioned rat model of PD; format: in vivo; details: 10mg/kg/day gavage for three weeks, day 17 and day 24 post-lesion, p < 0.05
Method: (§3) All surgical procedures were performed under general anesthesia with ketamine/xylazine. 2μl 6-OHDA (20 mg/ml in 0.02% ascorbic acid) was stereotaxically injected into the right striatum of male SD rats. Lesion coordinates were set according to bregma and dura in mm: ML-3.7; AP-1.0; DV-5.5. The injection rate was 2μl/5 min and the injecting needle was left for 2 minutes after injection to avoid back flow. Apomorphine-induced rotations (see below) were assessed three days post-lesion and rats with ≥ 30 full contralateral rotation/30 minutes were included in the study.
(§4) Rats were randomly grouped into vehicle control group (n = 11) and drug treatment group (n = 10). […] The control group received DMSO/corn oil (vehicle). The treatment continued for three weeks.
The cylinder test was used to test for forelimb use asymmetry. Rats to be tested were placed individually in a glass cylinder (21 cm diameter, 34 cm height) and wall exploration was recorded for five minutes. Wall exploration was expressed in terms of the percentage of impaired (right) forelimb vs. total (right+left+both) usage. Paw placement test was performed before the lesion for baseline, three days post lesion and two weeks and three weeks following treatment.

6-OHDA lesioned rats [6] = experiment: TH-immunoreactive neuron count in the SN of 6-OHDA lesioned rats; format: in vivo, rat; details: 10mg/kg/day gavage for three weeks, compared to the vehicle-treated group, p < 0.05
Method: as §3, §4
The caudal portion of the brains were sectioned in the coronal plane on a cryostat at 12 μm. From a random start corresponding to SNpc position, every 12th section was selected -, fixed with 4% paraformaldehyde and processed for tyrosine hydroxylase (TH) staining using mouse monoclonal anti-TH antibody (1:2000, Chemicon) and the Vectastain Elite ABC kit (Vector Lab) according to manufacturer's instruction. TH positive neurons were counted as described.

6-OHDA lesioned rats [7] = experiment: DAT and TH content in the striatum by Western blot, 6-OHDA lesioned rats; format: in vivo, rat; details: 10mg/kg/day gavage for three weeks
Method: as §3, §4
Striatum samples were homogenized and boiled in SDS-PAGE sample buffer and separated onto 10% Tris-glycine gels. Western blotting was performed using anti-TH or anti-DAT (Millipore, Billerica, MA), as primary antibodies and enhanced chemiluminescence signals were quantified and normalized with β-actin.

Sequence of RXRβ (P28702 whole entry): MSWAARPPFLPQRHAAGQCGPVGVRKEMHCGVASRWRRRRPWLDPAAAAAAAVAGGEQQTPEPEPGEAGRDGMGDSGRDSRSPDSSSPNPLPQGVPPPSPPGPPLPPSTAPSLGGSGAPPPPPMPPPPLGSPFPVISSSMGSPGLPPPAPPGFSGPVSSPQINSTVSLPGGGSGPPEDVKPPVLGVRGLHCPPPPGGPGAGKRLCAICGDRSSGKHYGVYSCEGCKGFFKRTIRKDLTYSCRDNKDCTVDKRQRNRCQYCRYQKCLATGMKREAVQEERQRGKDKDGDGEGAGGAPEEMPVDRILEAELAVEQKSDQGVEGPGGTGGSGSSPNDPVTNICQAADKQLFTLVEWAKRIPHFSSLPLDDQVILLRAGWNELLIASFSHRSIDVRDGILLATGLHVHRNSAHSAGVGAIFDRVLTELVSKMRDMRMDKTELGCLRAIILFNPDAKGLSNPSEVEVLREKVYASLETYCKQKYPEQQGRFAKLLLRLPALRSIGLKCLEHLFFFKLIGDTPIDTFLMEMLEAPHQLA
Sequence of LXRα (P19793 whole entry): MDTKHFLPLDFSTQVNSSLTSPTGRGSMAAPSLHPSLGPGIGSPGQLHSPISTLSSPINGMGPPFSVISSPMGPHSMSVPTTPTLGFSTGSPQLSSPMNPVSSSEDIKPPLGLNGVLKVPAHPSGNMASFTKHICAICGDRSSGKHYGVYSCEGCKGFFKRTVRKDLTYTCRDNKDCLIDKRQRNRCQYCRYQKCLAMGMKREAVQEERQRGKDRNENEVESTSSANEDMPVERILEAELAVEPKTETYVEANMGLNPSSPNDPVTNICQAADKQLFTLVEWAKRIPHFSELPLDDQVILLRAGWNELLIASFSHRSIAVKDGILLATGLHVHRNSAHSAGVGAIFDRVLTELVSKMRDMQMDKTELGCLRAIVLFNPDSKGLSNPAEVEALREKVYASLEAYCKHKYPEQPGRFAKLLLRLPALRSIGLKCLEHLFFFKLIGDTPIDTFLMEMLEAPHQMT
Sequence of LXRα (Q13133 whole entry): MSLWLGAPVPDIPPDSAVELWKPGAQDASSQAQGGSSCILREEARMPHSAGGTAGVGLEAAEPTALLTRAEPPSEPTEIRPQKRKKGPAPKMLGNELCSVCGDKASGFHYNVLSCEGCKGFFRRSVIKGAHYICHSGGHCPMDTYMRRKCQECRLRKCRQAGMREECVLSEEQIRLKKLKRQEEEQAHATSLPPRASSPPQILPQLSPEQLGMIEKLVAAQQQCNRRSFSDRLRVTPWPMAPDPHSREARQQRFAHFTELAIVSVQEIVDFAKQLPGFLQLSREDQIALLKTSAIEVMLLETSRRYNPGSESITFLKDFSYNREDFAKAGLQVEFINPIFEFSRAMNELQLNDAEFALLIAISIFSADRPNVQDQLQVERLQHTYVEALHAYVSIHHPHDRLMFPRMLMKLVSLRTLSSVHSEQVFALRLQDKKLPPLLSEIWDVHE
Sequence of LXRβ (P55055 whole entry): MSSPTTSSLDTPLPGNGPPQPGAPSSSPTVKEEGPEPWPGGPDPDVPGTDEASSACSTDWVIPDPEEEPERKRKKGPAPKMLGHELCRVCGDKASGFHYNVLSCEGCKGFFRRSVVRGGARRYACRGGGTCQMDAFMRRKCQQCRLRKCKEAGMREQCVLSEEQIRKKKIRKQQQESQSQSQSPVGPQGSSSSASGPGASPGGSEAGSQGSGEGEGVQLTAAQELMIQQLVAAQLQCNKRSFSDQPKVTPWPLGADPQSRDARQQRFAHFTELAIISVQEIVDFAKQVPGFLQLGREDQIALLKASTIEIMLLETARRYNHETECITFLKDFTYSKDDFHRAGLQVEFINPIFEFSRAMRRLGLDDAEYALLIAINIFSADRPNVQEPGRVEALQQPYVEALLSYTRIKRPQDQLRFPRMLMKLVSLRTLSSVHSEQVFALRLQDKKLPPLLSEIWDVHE
Sequence of LXRβ (P19793 whole entry, further chain): as the sequence (P19793 whole entry) above
Sequence of PPARγ (P37231 whole entry, species assumed, the tested form may be a part): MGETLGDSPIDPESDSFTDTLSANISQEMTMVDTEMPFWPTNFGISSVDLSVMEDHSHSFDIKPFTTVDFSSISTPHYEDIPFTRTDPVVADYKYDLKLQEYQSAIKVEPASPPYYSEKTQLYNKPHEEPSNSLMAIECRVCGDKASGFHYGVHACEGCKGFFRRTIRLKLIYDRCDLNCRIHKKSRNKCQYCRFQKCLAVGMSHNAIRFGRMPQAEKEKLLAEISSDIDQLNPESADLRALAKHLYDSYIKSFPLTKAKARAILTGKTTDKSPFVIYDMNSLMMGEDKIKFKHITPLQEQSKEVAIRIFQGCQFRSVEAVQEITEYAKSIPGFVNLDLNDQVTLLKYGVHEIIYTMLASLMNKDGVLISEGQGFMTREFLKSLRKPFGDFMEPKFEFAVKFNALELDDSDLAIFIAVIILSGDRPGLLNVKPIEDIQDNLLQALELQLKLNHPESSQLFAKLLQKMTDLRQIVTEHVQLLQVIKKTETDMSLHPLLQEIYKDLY
Sequence of PPARγ (P19793 whole entry partner, species assumed, the tested form may be a part): as the sequence (P19793 whole entry) above

## CC(/C=C/[C@@H]1C[C@]1(C)c1ccc2c(c1)C(C)(C)CCC2(C)C)=C\C(=O)O [IRX4204]
LXRα
  activation of RXR heterodimer of LXRα: does not activate
LXRβ
  activation of RXR heterodimer of LXRβ: does not activate
PPARγ
  activation of RXR heterodimer of PPARγ: does not activate
RXRβ
  concentration that fully activates RXRβ: 1 nM
  concentration that partially activates RXRβ: 0.1 nM
[1]
  survival of TH-positive DA neurons: increased survival
[2]
  fraction unbound at 1 ug/ml: 0.0064
[3]
  fraction unbound at 1 ug/ml: 0.0249
[4]
  concentration at 1 h: 11.5 ± 2.9 nM
6-OHDA lesioned rats [5]
  spontaneous forelimb use in the cylinder test: significantly improved spontaneous forelimb use to pre-lesion levels
6-OHDA lesioned rats [6]
  loss of TH-immunoreactive neurons in the SN: significantly reduced the loss
6-OHDA lesioned rats [7]
  DAT content in the lesioned striatum versus non-lesioned side: almost identical to those in the non-lesioned side
  TH content in the lesioned striatum versus non-lesioned side: almost identical to those in the non-lesioned side
